Data as given in article PMC8318231, “Rate-of-Kill (RoK) assays to triage large compound sets for Chagas disease drug discovery: Application to GSK Chagas Box” (PLoS Neglected Tropical Diseases, 2021).

Experiments:
[1] = system: T. cruzi intracellular amastigotes in H9c2 cells; test: Rate-of-Kill (RoK) high-content imaging assay, amastigotes per cell (AM/CELL) and curve descriptors; format: cell-based, Trypanosoma cruzi; set-up: key to ME_24h / ME_48h / ME_72h: % reduction in parasite burden (cidal response); t50pct_MCC50 / t50pct_Cmax: unit not given here; conditions: for ME_24h: 24h; for ME_48h: 48h; for ME_72h: 72h; for ME_24h (%): maximum effect at 24 h; for ME_24h (%) / ME_48h (%) / ME_72h (%): RoK assay; for ME_48h (%): maximum effect at 48 h; for ME_72h (%): maximum effect at 72 h; for ME 24h (maximum effect at 24 hours, intracellular amastigotes): maximum percentage of parasite burden reduction reached by any concentration
How it was run: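 Readouts at each time point are amastigotes per cell and host nuclei count (cytotoxicity), from DRAQ5 high-content imaging. Infection: trypomastigotes on H9c2 at MOI 8 for 18 h. Dosing was 5 μM single point or 11 points, 1/3 steps from 50 μM. Effect scaled between 4 h infected and uninfected controls.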

[2] = system: TcCYP51; conditions: formerly reported; cited from earlier work
[3] = system: T. cruzi Tulahuen trypomastigotes; test: T. cruzi trypomastigote assay (Cell Titer-Glo viability, ATP luminescence); format: cell-based, Trypanosoma cruzi; conditions: for Trypomastigotes pIC50 48 hours: 48 hours incubation; for Trypomastigotes pIC50 48 hours / Trypomastigotes pIC50 72 hours: pIC50 = -log10 IC50 in molar units; for Trypomastigotes pIC50 72 hours: 72 hours incubation; for 72 pIC50 (trypomastigotes, raw data of Fig 1D): 72 hours, plotted values, censored values given without sign; for 48 pIC50 / 72 pIC50: trypomastigote assay; for 48 pIC50: 48 h; for 72 pIC50: 72 h
How it was run: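 Compounds were tested in dose response or once at a final 5 μM against 5 × 10^4 trypomastigotes per well (DMEM, 2% FBS), collected on days 5–8 from LLC-MK2 infected cultures. ATP luminescence via CellTiter-Glo reports live parasites; DMSO defines 0% and cell-free wells 100% effect.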

SMILES | ME_24h ([1]; figure 5) | ME_48h ([1]; figure 5) | ME_72h ([1]; figure 5) | MCCE ([1]; RoK curve descriptor) | AM/CELL NORM ([1]; Time 4, sheet figure 4 A) | AM/CELL NORM ([1]; Time 24, sheet figure 4 A) | AM/CELL NORM ([1]; Time 48, sheet figure 4 A) | tlag_Cmax ([1]; at Cmax) | t50pct_Cmax ([1]; at Cmax, figure 5) | tlag_Cmax ([1]; at Cmax, figure 5) | t50pct_MCC50 ([1]; at MCC50, figure 5) | tlag_MCC50 ([1]; at MCC50, figure 5) | MCCE ([1]; figure 5) | ME_24h (%) [1] | ME_48h (%) [1] | ME_72h (%) [1] | ME 24h (maximum effect at 24 hours, intracellular amastigotes) [1] | CYP51 pIC50 [2] | Trypomastigotes pIC50 48 hours [3] | Trypomastigotes pIC50 72 hours [3] | other results
COc1ccc2c(Cl)c(C(=O)N3CCC3)sc2c1Cl [TCMDC-143262] | -33.6637 | -143.465 | -114.282 | 16.7 µM | 16.6129 | -33.6637 | -143.465 | 48.0 h | 72 | 48 | 72 | 72 | 16.6667 | -33.7% | -143.5% | -114.3% | -33.6637% | < 4 | 6.2 | 6.4 | AM/CELL NORM ([1]; Time 72, sheet figure 4 A): -114.282; MCC50 ([1]; figure 5): 50 µM
O=C(NCC1CCCCC1)c1cc(=O)c2ccccc2o1 [TCMDC-123621] | 36.8077 | 33.2383 | 64.4668 | 0.6 µM | – | – | – | 4.0 h | 72 | 4 | 72 | 4 | 0.6173 | 36.8% | 33.2% | 64.5% | 36.8077% | < 4 | 5 | 5 | MCC50 ([1]; RoK curve descriptor): 5.6 µM; AM/CELL NORM ([1]; Time 4, figure 4 A): -5.701; AM/CELL NORM ([1]; Time 24, figure 4 A): 30.3317; AM/CELL NORM ([1]; Time 48, figure 4 A): 33.2183; AM/CELL NORM ([1]; Time 72, figure 4 A): 64.4668; t50%_Cmax ([1]; at Cmax): 72.0 h; t50%_MCC50 ([1]; at MCC50): 72.0 h; tlag_MCC50 ([1]; at MCC50): 4.0 h; MCC50 ([1]; figure 5, in µM): 5.556; 72 pIC50 (trypomastigotes, raw data of Fig 1D) [3]: 5; 48 pIC50 ([3]; figure 1A): 5; 72 pIC50 ([3]; figure 1A): 5; 72 pIC50 ([3]; figure 1B): 5
O=C(NCc1ccncc1)c1ccccc1N1CCCN(C(=O)Cc2ccc(F)c(F)c2)CC1.O=C(O)C(F)(F)F.O=C(O)C(F)(F)F [TCMDC-143300] | -279.048 | -72.5657 | 30.5548 | 0.07 µM | -9.816 | -279.048 | -94.5412 | 24.0 h | 72 | 24 | 72 | 72 | 0.06859 | -279.1% | -72.6% | 30.6% | -279.048% | 7.1 | < 4.3 | < 4.3 | AM/CELL NORM ([1]; Time 72, sheet figure 4 A): 9.95; MCC50 ([1]; figure 5): 50 µM; 72 pIC50 (trypomastigotes, raw data of Fig 1D) [3]: < 4.3; 48 pIC50 ([3]; figure 1A): < 4.3; 72 pIC50 ([3]; figure 1A): < 4.3; 72 pIC50 ([3]; figure 1B): < 4.3
